# “Also recorded” adds a separate entry of the source.
# How the values were obtained:
# [1] = tested on: miR-96 and miR-210 levels; experiment: Effect on miR-96 and miR-210 levels under hypoxic conditions; format: cell-based
# [2] = biological target: T1, Topoisomerase II (Homo sapiens, UniProt P11388); experiment: In vitro topoisomerase inhibition assay; format: biochemical; details: 200 nM
# T1 construct: purchased TopoGEN, Inc
# Protocol: Topoisomerase II inhibitory activity was measured using a Topoisomerase II Drug Screening Kit (TopoGEN, Inc.) per the manufacturer's protocol. Taragpremir-210 (200 nM) was added to 300 ng of DNA in 1× Complete Buffer (50 mM Tris-HCl, pH 8, 150 mM NaCl, 10 mM MgCl2, 0.5 mM dithiothreitol, 30 μg/mL BSA, and 2 mM ATP), followed by addition of 7.5 U of Topoisomerase II enzyme. The samples were incubated for 30 min at 37° C., and the reaction was stopped by the addition of 2 µL of 10% sodium dodecyl sulfate (SDS). Proteinase K (50 μg/mL) was then added and the solution was incubated for 15 min at 37° C. Topoisomers were separated on 1% agarose gels with or without 0.5 μg/mL ethidium bromide. Note, for gels containing ethidium bromide, the 1× TAE running buffer was also supplemented with 0.5 μg/mL ethidium bromide. Gels prepared without ethidium bromide were post-stained (0.5 μg/mL ethidium bromide). Both types of gels were destained in 1× TAE for 15 min, and the DNA products were visualized using a Bio-Rad Gel Doc XR+imaging system.
# [3] = tested on: 15 miRNAs that have an RNA isoform that binds Targapremir-210; experiment: Cellular Chem-CLIP, RNA isoforms; format: cell-based; details: MDA-MB-231 cells; miR-497, miR-1273c, miR-3174, miR-107
# Protocol: (§1) MDA-MB-231 cells were grown in growth medium as monolayers in 60 mm dishes to ˜60% confluency. […] Cells were immediately placed under hypoxic conditions for 48 h, and total RNA was extracted using a Quick-RNA MiniPrep (Zymo Research) per the manufacturer's protocol. Approximately 10 μg of total RNA was incubated with 100 μL of streptavidin-agarose beads in 1× PBS for 1 h at room temperature with gentle shaking. The solution was removed and the beads were washed 8 times with 300 μL of in 1× PBS. Bound RNA was released from the beads by heating in 1× Elution Buffer (95% formamide, 10 mM EDTA, pH 8.2) at 60° C. for 20 min. The pulled-down RNA was purified using a Quick-RNA MiniPrep Kit (Zymo Research) and then used for subsequent RT and qPCR reactions as described above.
# (§2) The relative fold-change in the amount of an RNA before and after pull-down was calculated by the ΔΔCt method as shown in equation 1: […]
# (§3) Relative Fold−Change:2^−(ΔC^t ^before pull-down−Δc^t ^after pull-down) (1)
# (§4) where the “ΔCt before pull-down” is the difference between the Ct values for the RNA of interest and a housekeeping gene (U6 small nuclear RNA, GAPDH mRNA, or 18S rRNA) in total RNA isolated from cells and “ΔCtafter pull-down” is the difference between the Ct values the RNA of interest and the same housekeeping gene after pull-down.
# [4] = tested on: GPD1L mRNA; experiment: RT-qPCR of resected tumors, GPD1L; format: in vivo, NOD/SCID mice; details: compared to untreated tumors
# Protocol: (§5) Approximately 200-600 ng of RNA was used in subsequent reverse transcription reactions using a miScript II RT Kit (Qiagen) or a qScript cDNA Synthesis Kit (Quanta Biosciences) per the manufacturers' recommended protocols. Primers for RT-qPCR were purchased from Integrated DNA Technologies (IDT) or Eurofins (Table S1) and used without further purification. RT-qPCR samples were prepared using Power SYBR Green PCR Master Mix (Applied Biosystems) and completed by using a 7900HT Fast Real Time PCR System (Applied Biosystems). Expression levels of RNA were normalized to U6 small nuclear RNA, GAPDH mRNA, or 18S rRNA.
# (§6) NOD/SCID mice (B6.CB17-Prkdcscid/Sz, Jackson Laboratories) were housed in the Scripps Florida vivarium. All live animal experiments were approved by the Scripps Florida Institutional Animal Care and Use Committee. Two sets of experiments were completed: treatment of MDA-MB-231-GFP-luc cells prior to implantation and treatment of mice post-tumor implantation. For pre-treatment of tumor cells, MDA-MB-231-GFP-luc cells (5×10^6) were treated with or without Targapremir-210 (200 nM) or anti-miR-210 antagomir (500 nM) for 48 h pre-implantation. […]
# (§7) Tumor growth was monitored weekly post-implantation by i.p. injection of 200 μL D-luciferin (15 mg/mL) and imaging with an IVIS 200 system. […] Levels of mature miR-210, HIF-1a, and GPLDL1 RNAs were measured by RT-qPCR as described above.
# [5] = tested on: HIF-1α mRNA; experiment: RT-qPCR of HIF-1α mRNA in hypoxic MDA-MB-231 cells; format: cell-based; details: 200 nM
# Protocol: (§8) MDA-MB-231 cells were cultured in RPMI 1640 medium supplemented with 10% FBS (Sigma), 1× Glutagro (Corning), and 1× Pen/Strep (MP Biomedicals, LLC) (growth medium). Cells cultured in normoxia were maintained at 37° C. in ambient atmosphere (˜21% O2) with 5% CO2. Cells cultured in hypoxia were maintained at 37° C., <1% O2 in a nitrogen filled hypoxic chamber (Billups-Rothenberg, Inc.), and 5% CO2.
# as §5
# [6] = biological target: pre-miR-210 RNA; experiment: In solution fluorescent binding assay
# Protocol: Dissociation constants for the binding of pre-miR-210 RNA to Hoechst 33342 and Targapremir-210 were determined using an in solution, fluorescent binding assay. RNA was folded in 1× Binding Buffer (8 mM Na2HPO4, 190 mM NaCl, 1 mM EDTA, and 40 μg/mL BSA) at 60° C. for 5 min and then allowed to cool to room temperature for 10 min. Hoechst 33342 or Targapremir-210 was added to a final concentration of 500 nM. Next, 1:2 serial dilutions were performed in 1× Binding Buffer supplemented with 500 nM of Hoechst 33342 or Targapremir-210. Solutions were incubated for 30 min and then transferred to Corning non-binding surface 96-well black plates. Fluorescence intensity was then measured on a Bio-Tek FLX-800 plate reader. Change in fluorescence intensity was fit as a function of RNA concentration with equation 1: […]
# where I and I0 are the observed fluorescence intensity in the presence and absence of RNA, respectively, Δε is the difference between the fluorescence intensity in the absence and in the presence of infinite RNA concentration, [FL]0 and [RNA]0 are the concentrations of compound (Hoechst 33342 or Targapremir-210) and RNA, respectively, and Kt is the dissociation constant.
# [7] = tested on: miR-210 hairpin precursor (pre-miR-210), Dicer processing; experiment: In vitro Dicer protection assay; format: biochemical; details: recombinant human Dicer, gel quantification
# Protocol: The miR-210 precursor was 5′-end labeled with [γ-^32P] ATP and T4 polynucleotide kinase as previously described^4. The RNA was then folded in 1× Reaction Buffer (Genlantis) by heating at 60° C. for 5 min and slowly cooling to room temperature, where it was then supplemented with 1 mM ATP and 2.5 mM MgCl2. Targapremir-210 was added to the reaction mixture and the samples were allowed to incubate at room temperature for 15 min. Recombinant human Dicer enzyme (Genlantis) was added to a final concentration of 0.01 U/μL and the samples were incubated for an additional 30 min at 37 ° C. Reactions were stopped by adding in 2× Gel Loading Buffer (8 M urea, 50 mM EDTA, 0.05% (w/v) bromophenol blue, 0.05% (w/v) xylene cyanol). To generate sequencing markers, pre-miR-210 was digested with RNase T1 (0.125 U/μL) in T1 Buffer (25 mM sodium citrate, pH 5, 7 M urea, and 1 mM EDTA) for 20 min at room temperature. An RNA hydrolysis ladder was prepared by incubating RNA in 1× RNA Hydrolysis Buffer (50 mM NaHCO3, 1 mM EDTA, pH 9.4) at 95° C. for 5 min. Cleavage products were resolved on a denaturing 15% polyacrylamide gel, which was imaged using a Molecular Dynamics Typhoon phosphorimager and quantified with Bio-Rad's QuantityOne software.
# [8] = tested on: miR-210; experiment: RT-qPCR of miR-210 (mature, pri-, pre-) in MDA-MB-231 cells under hypoxic conditions; format: cell-based
# Protocol: as §8, §5
# [9] = tested on: miR-210; experiment: RT-qPCR of resected tumors, miR-210; format: in vivo, NOD/SCID mice; details: compared to untreated tumors
# Protocol: as §5, §6, §7
# [10] = tested on: MDA-MB-231-GFP-Luc tumors; experiment: TNBC mouse xenograft model, tumor burden; format: in vivo, NOD/SCID mice; details: 200 nM, cell pre-treatment or single injection 24 h post-implantation; 21 days
# Protocol: NOD/SCID mice (B6.CB17-Prkdcscid/Sz, Jackson Laboratories) were housed in the Scripps Florida vivarium. All live animal experiments were approved by the Scripps Florida Institutional Animal Care and Use Committee. Two sets of experiments were completed: treatment of MDA-MB-231-GFP-luc cells prior to implantation and treatment of mice post-tumor implantation. For pre-treatment of tumor cells, MDA-MB-231-GFP-luc cells (5×10^6) were treated with or without Targapremir-210 (200 nM) or anti-miR-210 antagomir (500 nM) for 48 h pre-implantation. A 100 μL PBS/Matrigel (1:1; BD Biosciences) cell suspension was subcutaneously transplanted into mouse breast fat pads. Alternatively, mouse breast fat pads were injected with a 100 μL PBS/Matrigel (1:1) cell suspension (5×10^6MDA-MB-231-GFP-luc cells) followed by intraperitoneal (i.p) injection of Targapremir-210 (100 μL of 200 nM) or anti-miR-210 antagomir (100 μL of 500 nM) 24 h post-transplantation.
# Tumor growth was monitored weekly post-implantation by i.p. injection of 200 μL D-luciferin (15 mg/mL) and imaging with an IVIS 200 system. Tumors were resected 21 days post-transplantation following euthanasia. Levels of mature miR-210, HIF-1a, and GPLDL1 RNAs were measured by RT-qPCR as described above.
# [11] = tested on: hypoxia-associated miRNAs; experiment: Cellular Chem-CLIP and C-Chem-CLIP, hypoxia-associated miRNAs; format: cell-based
# Protocol: as §1, §2, §3, §4
# [12] = tested on: GPD1L; experiment: RT-qPCR of GPD1L in hypoxic MDA-MB-231 cells; format: cell-based; details: 200 nM
# Protocol: as §8, §5
# [13] = tested on: miRNAs with predicted compound binding sites; experiment: Cellular selectivity, RT-qPCR of RNA isoforms; format: cell-based; details: hypoxic MDA-MB-231 cells
# Protocol: as §8, §5
# [14] = biological target: pre-miR-210 Dicer site, 5′ACU3′/3′UCA5′; details: 5′ACU3′/3′UCA5′ motif; reference 15; read-out: Kd, binding affinity for the pre-miR-210 Dicer site; cited from earlier work
# [15] = Tumor localization by fluorescent microscopy; format: in vivo, NOD/SCID mice; details: single i.p. injection
# Protocol: Resected tumor samples were frozen using O.C.T. Compound (Tissue-Tek) over dry ice. Frozen tissues were sectioned by cryostat and transferred to microscope slides. Fluorescent microscopic analysis was carried out using a Leica DMI3000 B upright fluorescent microscope.
# [16] = tested on: RNA in which the Dicer site was ablated; details: reference 15; cited from earlier work
# [17] = tested on: panel of hypoxia-associated miRNAs (n=28); experiment: Cellular selectivity, RT-qPCR of hypoxia-associated miRNAs; format: cell-based; details: 200 nM, MDA-MB-231 cells
# Protocol: as §8, §5
# [18] = tested on: miR-210 hairpin precursor; experiment: Cellular Chem-CLIP and C-Chem-CLIP, miR-210; format: cell-based; details: read-out: concentration required to inhibit ˜50% of the reaction of Targapremir-210-CA-Biotin with the miR-210 hairpin precursor (C-Chem-CLIP); MDA-MB-231 cells, 200 nM probe
# Protocol: as §1, §2, §3, §4
# [19] = tested on: HIF-1α mRNA; experiment: RT-qPCR of resected tumors, HIF-1α; format: in vivo, NOD/SCID mice; details: compared to untreated tumors
# Protocol: as §5, §6, §7
# [20] = tested on: MDA-MB-231 cells; experiment: Apoptosis by Annexin V/propidium iodide staining and flow cytometry; format: cell-based; details: 200 nM
# Protocol: as §8
# [21] = 200 nM, hypoxic MDA-MB-231 cells
# T1 sequence (P11388 whole entry): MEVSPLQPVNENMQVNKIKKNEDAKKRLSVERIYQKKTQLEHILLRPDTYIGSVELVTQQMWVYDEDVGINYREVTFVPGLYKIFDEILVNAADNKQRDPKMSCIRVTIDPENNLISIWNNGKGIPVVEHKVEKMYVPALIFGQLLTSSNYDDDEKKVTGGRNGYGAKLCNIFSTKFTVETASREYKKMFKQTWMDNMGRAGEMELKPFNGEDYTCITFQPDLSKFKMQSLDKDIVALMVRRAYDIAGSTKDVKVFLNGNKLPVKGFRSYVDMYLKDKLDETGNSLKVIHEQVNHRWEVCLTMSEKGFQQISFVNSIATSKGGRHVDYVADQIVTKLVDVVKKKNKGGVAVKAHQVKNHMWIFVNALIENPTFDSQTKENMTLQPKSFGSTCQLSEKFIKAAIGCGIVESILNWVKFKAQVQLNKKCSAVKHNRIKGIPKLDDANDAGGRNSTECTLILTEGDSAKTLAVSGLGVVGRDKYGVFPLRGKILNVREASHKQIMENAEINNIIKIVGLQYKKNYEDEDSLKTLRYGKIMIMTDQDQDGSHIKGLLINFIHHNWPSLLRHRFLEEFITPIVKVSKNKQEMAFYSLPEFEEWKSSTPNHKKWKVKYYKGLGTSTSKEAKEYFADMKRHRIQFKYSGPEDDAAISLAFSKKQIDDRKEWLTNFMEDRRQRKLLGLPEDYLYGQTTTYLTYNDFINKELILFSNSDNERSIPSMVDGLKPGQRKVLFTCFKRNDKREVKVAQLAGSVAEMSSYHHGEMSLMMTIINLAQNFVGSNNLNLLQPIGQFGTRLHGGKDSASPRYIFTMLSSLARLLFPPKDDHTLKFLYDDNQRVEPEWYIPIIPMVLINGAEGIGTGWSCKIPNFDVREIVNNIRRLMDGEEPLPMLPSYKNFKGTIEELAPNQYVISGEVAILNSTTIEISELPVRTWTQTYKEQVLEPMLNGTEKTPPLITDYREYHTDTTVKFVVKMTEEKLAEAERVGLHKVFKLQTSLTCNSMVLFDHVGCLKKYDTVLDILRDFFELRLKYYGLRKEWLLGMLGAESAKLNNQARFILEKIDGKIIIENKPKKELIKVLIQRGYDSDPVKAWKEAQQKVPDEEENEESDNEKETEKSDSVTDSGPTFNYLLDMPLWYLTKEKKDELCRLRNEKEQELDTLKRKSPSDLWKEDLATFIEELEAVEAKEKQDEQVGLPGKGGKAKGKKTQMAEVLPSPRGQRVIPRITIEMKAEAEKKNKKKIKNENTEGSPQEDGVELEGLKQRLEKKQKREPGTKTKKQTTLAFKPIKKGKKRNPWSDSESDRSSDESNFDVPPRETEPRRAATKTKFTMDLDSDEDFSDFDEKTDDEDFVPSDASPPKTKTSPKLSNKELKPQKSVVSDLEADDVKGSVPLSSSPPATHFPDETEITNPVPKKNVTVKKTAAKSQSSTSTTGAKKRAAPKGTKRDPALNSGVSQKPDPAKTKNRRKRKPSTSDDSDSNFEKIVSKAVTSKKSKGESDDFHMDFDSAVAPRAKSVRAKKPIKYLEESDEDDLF
compound,measurement,setting,value
Targaprimir-96 [reference compound],effect on miR-96 and miR-210 levels,[1],only affects miR-96
CN1CCN(c2ccc3nc(-c4ccc5[nH]c(-c6cccc(OCCCC(=O)NCCCN=[N+]=[N-])c6)nc5c4)[nH]c3c2)CC1 [Targapremir-210],inhibition of topoisomerase enzymatic activity,[2],did not inhibit topoisomerase activity
same,effect on miR-96 and miR-210 levels,[1],only affects miR-210
same,miRNAs with RNA isoform bound in cells (Chem-CLIP),[3],only four of the miRNAs are bound
same,GPD1L levels in resected tumors,[4],doubled
same,reduction of HIF-1α mRNA levels,[5],~75%
same,binding to in vitro transcribed pre-miR-210,[6]; compared with binding to the Dicer site motif,binds similarly
same,inhibition of Dicer processing of pre-miR-210 in vitro,[7],inhibited pre-miR-210 processing at nanomolar concentrations
same,increase in pre-miR-210 levels,[8]; [21],~2.6 fold
same,increase in pri-miR-210 levels,[8]; [21],~3 fold
same,IC50,"[8]; Homo sapiens, MDA-MB-231 cells, hypoxic conditions, RT-qPCR, read-out: IC50, decrease of mature miR-210 levels",~200 nM
same,reduction of miR-210 levels in resected tumors,[9],~90%
same,"tumor growth (luciferase signal intensity, mass of the resected tumor)",[10],significantly decreased tumor growth
same,highest relative fold pull-down among hypoxia-associated miRNAs other than miR-210,"[11]; Chem-CLIP probe pull-down, three of 28 enriched (miR-181a, miR-205, miR-206)",~2.8 fold
same,abundance of other hypoxia-associated miRNAs as a function of Targapremir-210 concentration (C-Chem-CLIP),[11]; MDA-MB-231 cells,did not change
same,increase of GPD1L levels,[12],~4 fold
same,effect on expression levels of miRNAs with predicted compound binding sites,[13],only affected levels of miR-210; also recorded: no statistically significant effect
same,Kd,[14],~200 nM
same,compound localization in tumor,[15],able to reach the tumor and sustain for the entire 21-day period
same,binding to RNA in which the Dicer site was ablated,[16],did not bind
same,effect on levels of hypoxia-associated miRNAs,[17],affected only levels of mature miR-210
same,IC50,[18],200 nM
same,reduction of HIF-1α levels in resected tumors,[19],~75%
same,apoptosis,[20]; hypoxic conditions,induced apoptosis
same,apoptosis with overexpression of pre-miR-210,"[20]; hypoxic conditions, pre-miR-210 overexpressed",allowed cells to escape apoptosis
same,apoptosis,[20]; normoxia,did not induce apoptosis
"CCOc1ccc(-c2nc3ccc(-c4nc5ccc(N6CCN(C)CC6)cc5[nH]4)cc3[nH]2)cc1 [Hoechst 33342, reference compound]",affinity for pre-miR-210,[6]; up to 5000 nM pre-miR-210 added,No saturable binding was observed
same,mature miR-210 levels,[8]; [21],no statistically significant effect
